Source: patent publication EP1137645B1, “ALPHA-METHYLBENZYL-CONTAINING THIOUREA INHIBITORS OF HERPES VIRUSES CONTAINING A […] GROUP” (Wyeth, priority 1998, dated 2000)
Values after ≈ are worked out from the molar mass of the structure shown. Where two headings read alike, the source gives them in different places.

Experiments:
[1] = system: HCMV recombinant mutant virus whose genome contains the prokaryotic beta-glucuronidase gene; experiment: microbe, parasite or virus in culture; assay type: cell-based, human cytomegalovirus; conditions: Human betaherpesvirus 5, Fibroblast
From the text: Microtiter plate assay. Ninety-six well plate cultures of human foreskin fibroblasts are infected in the presence of inhibitor compound with a HCMV recombinant mutant virus whose genome contains the prokaryotic beta-glucuronidase gene (Jefferson, R. A., S. M. Burgess, and D. Hirsh. 1986. Beta-glucuronidase from Escherichia coli as a gene fusion marker. Proc. Natl. Acad. Sci. USA 83:8447-8451) whose expression is controlled by a viral promoter. An example of such a virus is RV145 (Jones, T. R., V. P. Muzithras, and Y. Gluzman. 1991. Replacement mutagenesis of the human cytomegalovirus genome: US10 and US11 gene products are nonessential. J. Virol. 65:5860-5872). Since it is under the control of a viral promoter, beta-glucuronidase expression is an indirect indicator of growth and replication of HCMV in this assay. At 96 hours post-infection, the infected cell lysates are prepared (using 50mM sodium phosphate [pH7.0] containing 0.1% Triton X-100 and 0.1% sarkosyl) and assayed for beta-glucuronidase activity using a substrate for the enzyme which when cleaved yields either a product which can be measured colorimetrically in a spectrophotometer or fluorescently in a microfluorimeter. Examples of such substrates are p-nitrophenyl-beta-D-glucuronide and methylumbelliferylglucuronide, respectively. The presence of an antiviral compound is indicated by the reduced expression of the HCMV genome resident beta-glucuronidase gene, compared to the absence of inhibitor. […] Data from this assay generated using varying amounts of inhibitor compound is also used to estimate the IC50 of an inhibitor compound.

HSV- I = experiment: HSV antiviral (ELISA) assay; assay type: cell-based; conditions: read-out: IC50 (ug/ml) HSV
Method: Vero cells (ATCC #CCL-81) are plated on 96-well tissue culture plates at 3.5x10^4 cells per 100µl tissue culture DMEM (Dulbecco's modified Eagle media) supplemented with 2% fetal bovine serum (FBS) in each well. After overnight incubation @ 37°C (in 5% CO2) and 30 minutes prior to infection with HSV- I (multiplicity of infection equal to 0.006), cells are either untreated, or treated with test compound (multiple concentrations) or reference standard drug control. After approximately 24 hours post-infection incubation @ 37°C (in 5% CO2), cells are fixed for ELISA assay. The primary antibody is murine anti-HSV glycoprotein D monoclonal primary antibody and the secondary antibody is goat anti-mouse IgG linked to β-galactosidase. Thus the extent of viral replication is determined by assessing β-galactosidase activity by quantifying the generation of the 4-methyl umbelliferone fluorescent cleavage product after addition of the methyl umbelliferyl-β-D-galactoside (Sigma #M1633) substrate on a microfluorimeter (365nm for excitation and 450nm for emission). Antiviral activity (IC50) of the test compound is determined by comparing the flourescence obtained in absence of compound to that obtained in the presence of compound.

VZV strain Ellen = experiment: VZV antiviral (ELISA) assay; assay type: cell-based; conditions: read-out: IC50 (ug/ml) VZV
Method: For the generation of stock VZV to be used in the assay, VZV strain Ellen (ATCC #VR-1367) is used to infect human foreskin fibroblast (HFF) cells at low multiplicity (less than 0.1) and incubated overnight at 37°C in 5% CO2. After the overnight incubation, the mixture of uninfected and VZV-infected HFF infected cells are then harvested and added to each well of 96-well plates (3.5x10^4 cells in 100 µl DMEM supplemented with 2% FBS) which contain test compound or the reference standard drug control (in 100µl DMEM supplemented with 2% FBS per well). These cells are incubated for three days at 37°C in 5% CO2, then fixed for ELISA assay. The primary antibody is murine anti-VZV glycoprotein II monoclonal antibody (Applied Biosystems, Inc. #13-145-100) and the secondary antibody is goat anti-mouse IgG linked to β-galactosidase. Thus the extent of viral replication is determined by assessing β-galactosidase activity by quantifying the generation of the 4-methyl umbelliferone fluorescent cleavage product after addition of the methyl umbelliferyl-β-D-galactoside (Sigma #M1633) substrate on a microfluorimeter (365nm for excitation and 450nm for emission). Antiviral activity (IC50) of the test compound is determined by comparing the flourescence obtained in absence of compound to that obtained in the presence of compound.

[2] = read-out: IC50 ug/ml HCMV, HCMV, human foreskin fibroblasts

`CN(C)c1cc(CCNC(=S)Nc2ccc(NC(=O)c3ccccc3F)cc2)cc(C(F)(F)F)c1` [Example 653, N-(4-{3-[2-(3-Dimethylamino-5-trifluoromethyl-phenyl)-ethyl]-thioureido}-phenyl)-2-fluoro-benzamide] showed an IC50 [1, 2] greater than 0.5 µg/mL and an IC50 (HSV- I; Vero) greater than 10 µg/mL.
Molecule `O=C(Nc1ccc(NC(=S)NCCSc2ccccc2)cc1)c1ccccc1F` [Example 656, 2-Fluoro-N-{4-[3-(2-phenylsulfanyl-ethyl)-thioureido]-phenyl}-benzamide] has an IC50 [1, 2] greater than 0.5 µg/mL and an IC50 (HSV- I; Vero) of 5 µg/mL (≈ 11.7 µM).
Molecule `O=C(Nc1ccc(NC(=S)NCc2cccc(I)c2)cc1)c1ccccc1F` [Example 661, 2-Fluoro-N-{4-[3-(3-iodo-benzyl)-thioureido]-phenyl}-benzamide] has an IC50 ([1]; read-out: IC50 ug/ml HCMV) greater than 0.5 µg/mL and an IC50 (HSV- I; HSV- I, Vero cells, ELISA) greater than 10 µg/mL.
Molecule `O=C(Nc1ccc(NC(=S)NCCOc2cc(Cl)cc(Cl)c2)cc1)c1ccccc1F` [Example 664, N-(4-{3-[2-(3,5-Dichloro-phenoxy)-ethyl]-thioureido}-phenyl)-2-fluoro-benzamide] has an IC50 [1, 2] greater than 0.5 µg/mL and an IC50 (HSV- I; Vero) of 10 µg/mL (≈ 20.9 µM).
Molecule `O=C(Nc1ccc(NC(=S)NCCOc2cccc(Cl)c2)cc1)c1ccccc1F` [Example 666, N-(4-{3-[2-(3-Chloro-phenoxy)-ethyl]-thioureido}-phenyl)-2-fluoro-benzamide] has an IC50 [1, 2] greater than 0.5 µg/mL and an IC50 (HSV- I; Vero) of 10 µg/mL (≈ 22.5 µM).
For `O=C(Nc1ccc(NC(=S)NCc2cc(C(F)(F)F)ccc2F)cc1)c1ccccc1F` [Example 669, 2-Fluoro-N-{4-[3-(2-fluoro-5-trifluoromethyl-benzyl)-thioureido]-phenyl}-benzamide], the IC50 ([1]; read-out: IC50 ug/ml HCMV) was greater than 0.5 µg/mL and the IC50 (HSV- I; HSV- I, Vero cells, ELISA) was greater than 10 µg/mL.
Molecule `O=C(Nc1ccc(NC(=S)NCc2ccc(F)c(F)c2)cc1)c1ccccc1F` [Example 672, N-{4-[3-(3,4-Difluoro-benzyl)-thioureido]-phenyl}-2-fluoro-benzamide] has an IC50 ([1]; read-out: IC50 ug/ml HCMV) greater than 0.5 µg/mL and an IC50 (HSV- I; HSV- I, Vero cells, ELISA) greater than 10 µg/mL.
For `Cc1cc(CCNC(=S)Nc2ccc(NC(=O)c3ccccc3F)cc2)ccc1N(C)C` [Example 673, N-(4-{3-[2-(4-Dimethylamino-3-methyl-phenyl)-ethyl]-thioureido}-phenyl)-2-fluoro-benzamide], the IC50 [1, 2] was greater than 0.5 µg/mL and the IC50 (HSV- I; Vero) was 7 µg/mL (≈ 15.5 µM).
With `O=C(Nc1ccc(NC(=S)NCc2ccc(F)c(Cl)c2)cc1)c1ccccc1F` [Example 677, N-{4-[3-(3-Chloro-4-fluoro-benzyl)-thioureido]-phenyl}-2-fluoro-benzamide] the IC50 [1, 2] was greater than 0.5 µg/mL and the IC50 (HSV- I; Vero) was greater than 10 µg/mL.
`O=C(Nc1ccc(NC(=S)NCCSc2cccc(Br)c2)cc1)c1ccccc1F` [Example 680, N-(4-{3-[2-(3-Bromo-phenylsulfanyl)-ethyl]-thioureido}-phenyl)-2-fluoro-benzamide] showed an IC50 [1, 2] greater than 0.5 µg/mL and an IC50 (HSV- I; Vero) greater than 10 µg/mL.
`CN1CCN(c2ccc(CNC(=S)Nc3ccc(NC(=O)c4ccccc4F)cc3)cc2C(F)(F)F)CC1` [Example 687, 2-Fluoro-N-(4-{3-[4-(4-methyl-piperazin-1-yl)-3-trifluoromethyl-benzyl]-thioureido}-phenyl)-benzamide] was tested, and the IC50 [1, 2] was greater than 0.5 µg/mL and the IC50 (HSV- I; Vero) was 1.2 µg/mL (≈ 2.2 µM).
`O=C(Nc1ccc(NC(=S)NCCOc2ccc(Br)cc2)cc1)c1ccccc1F` [Example 695, N-(4-{3-[2-(4-Bromo-phenoxy)-ethyl]-thioureido}-phenyl)-2-fluoro-benzamide] gave an IC50 [1, 2] greater than 3 µg/mL and an IC50 (HSV- I; Vero) greater than 10 µg/mL.
Work on `O=C(Nc1ccc(NC(=S)NCCOc2ccc(I)cc2)cc1)c1ccccc1F` [Example 696, 2-Fluoro-N-(4-{3-[2-(4-iodo-phenoxy)-ethyl]-thioureido}-phenyl)-benzamide] yielded an IC50 ([1]; read-out: IC50 ug/ml HCMV) greater than 3 µg/mL and an IC50 (HSV- I; HSV- I, Vero cells, ELISA) of 10 µg/mL (≈ 18.7 µM).
`O=C(Nc1ccc(NC(=S)NCCc2ccc(Cl)c(Cl)c2)cc1)c1ccccc1F` [Example 719, N-(4-{3-[2-(3,4-Dichloro-phenyl)-ethyl]-thioureido}-phenyl)-2-fluoro-benzamide] gave an IC50 [1, 2] greater than 0.5 µg/mL and an IC50 (HSV- I; Vero) greater than 10 µg/mL.
With `O=C(Nc1ccc(NC(=S)NCCc2ccccc2F)cc1)c1ccccc1F` [Example 721, 2-Fluoro-N-(4-{3-[2-(2-fluoro-phenyl)-ethyl]-thioureido}-phenyl)-benzamide] the IC50 (HSV- I; HSV- I, Vero cells, ELISA) was greater than 10 µg/mL.
Work on `CC(C)(C)c1ccc(CNC(=S)Nc2ccc(NC(=O)c3ccccc3F)cc2)cc1` [Example 724, N-{4-[3-(4-tert-Butyl-benzyl)-thioureido]-phenyl}-2-fluoro-benzamide] yielded an IC50 (HSV- I; Vero) greater than 10 µg/mL.
With `Cc1cc(C)cc(CNC(=S)Nc2ccc(NC(=O)c3ccccc3F)cc2)c1` [Example 725, N-{4-[3-(3,5-Dimethyl-benzyl)-thioureido]-phenyl}-2-fluoro-benzamide] the IC50 (HSV- I; Vero) was greater than 10 µg/mL.
`CC(C)(NC(=S)Nc1ccc(NC(=O)c2ccccc2F)cc1)c1ccccc1` [Example 727, 2-Fluoro-N-{4-[3-(1-methyl-1-phenyl-ethyl)-thioureido]-phenyl}-benzamide] showed an IC50 (HSV- I; Vero) greater than 10 µg/mL.
`COc1ccccc1C(=O)Nc1ccc(NC(=S)NC(C)c2ccc(F)cc2)cc1` (centres unmarked) [Example 752, N-(4-{3-(1-(4-Fluoro-phenyl)-ethyl]-thioureido}-phenyl)-2-methoxy-benzamide] was tested, and the IC50 [1, 2] was greater than 0.5 µg/mL and the IC50 (HSV- I; Vero) was greater than 10 µg/mL.
With `CC(NC(=S)Nc1ccc(NC(=O)c2ccc(N(C)C)cc2)cc1)c1ccc(F)cc1` (centres unmarked) [Example 765, 4-Dimethylamino-N-(4-{3-[1-(4-fluoro-phenyl)-ethyl]-thioureido}-phenyl)-benzamide] the IC50 [1, 2] was 2.3 µg/mL (≈ 5.27 µM) and the IC50 (HSV- I; Vero) was 10 µg/mL (≈ 22.9 µM).
`CCC(NC(=S)Nc1ccc(NC(=O)c2ccccc2F)cc1)c1ccc(F)cc1` (centres unmarked) [Example 771, 2-Fluoro-N-(4-{3-[1-(4-fluoro-phenyl)-propyl]-thioureido}-phenyl)-benzamide] gave an IC50 [1, 2] of 0.4 µg/mL (≈ 0.94 µM) and an IC50 (HSV- I; Vero) greater than 10 µg/mL.
Work on `O=C(Nc1ccc(NC(=S)NC(c2ccccc2)c2ccc(F)cc2)cc1)c1ccccc1F` (centres unmarked) [Example 772, 2-Fluoro-N-(4-{3-[(4-fluoro-phenyl)-phenyl-methyl]-thioureido}-phenyl)-benzamide] yielded an IC50 [1, 2] of 0.35 µg/mL (≈ 0.739 µM) and an IC50 (HSV- I; Vero) greater than 10 µg/mL.
`O=C(Nc1ccc(NC(=S)Nc2cccc(Cl)c2Cl)cc1)c1ccccc1F` [Example 927, N-{4-[3-(2,3-Dichloro-phenyl)-thioureido]-phenyl}-2-fluoro-benzamide] showed an IC50 [1, 2] of 2 µg/mL (≈ 4.6 µM) and an IC50 (HSV- I; Vero) of 5 µg/mL (≈ 11.5 µM).
Molecule `O=C(Nc1ccc(NC(=S)Nc2cccc(Cl)c2)cc1)c1ccccc1F` [Example 944, N-{4-[3-(3-Chloro-phenyl)-thioureido]-phenyl}-2-fluoro-benzamide] has an IC50 [1, 2] of 3 µg/mL (≈ 7.5 µM) and an IC50 (HSV- I; Vero) greater than 10 µg/mL.
Work on `O=C(Nc1ccc(NC(=S)Nc2ccc(Cl)cc2)cc1)c1ccccc1F` [Example 946, N-{4-[3-(4-Chloro-phenyl)-thioureido]-phenyl}-2-fluoro-benzamide] yielded an IC50 [1, 2] greater than 10 µg/mL and an IC50 (HSV- I; Vero) greater than 10 µg/mL.
`CC(NC(=S)Nc1ccc(NC(=O)c2nccc3ccccc23)cc1)c1ccc(F)cc1` (centres unmarked) [Example 1110, Isoquinoline-1-carboxylic acid (4-{3-[1-(4-fluoro-phenyl)-ethyl]-thioureido}-phenyl)-amide] showed an IC50 ([1]; read-out: IC50 ug/ml HCMV) of 3.3 µg/mL (≈ 7.42 µM) and an IC50 (VZV strain Ellen; Human alphaherpesvirus 3, VZV strain Ellen, HFF cells, ELISA) of 0.05 µg/mL (≈ 0.112 µM).
In the case of `C[C@H](NC(=S)Nc1ccc(NC(=O)c2nccc3ccccc23)cc1)c1ccc(C#N)cc1` [Example 1111], the IC50 [1, 2] is reported as greater than 10 µg/mL and the IC50 (VZV strain Ellen; Human alphaherpesvirus 3, HFF) is reported as 0.1 µg/mL (≈ 0.221 µM).
